Measured values as given in patent US20260083722A1, “BIFUNCTIONAL DEGRADERS COMPRISING ELECTROPHILIC PROTACS THAT ENGAGE DCAF1 AND PHARMACEUTICAL COMPOSITIONS COMPRISING THE SAME” (THE SCRIPPS RESEARCH INSTITUTE, priority 2022, published 2026).

Target: T1, recombinant DCAF1-WT (a.a.'s 1046-1396) (Homo sapiens, UniProt Q9Y4B6)
T1 construct: form of DCAF1 containing the WD40 domain (amino acids (a.a.'s) 1046-1396); made in house
Experiment: gel-ABPP with recombinant purified DCAF1-WT doped into HEK293T cell proteome
Format: binding
Settings: for inhibition of MY-11B probe reactivity with recombinant DCAF1: 2 h, then MY-11B 25 μM 1 h, YT41S and YT47S at single concentration 100 μM; for plateau of blockade of MY-11B labeling: at 20 µM test concentrations; for gel-shift of recombinant DCAF1 by Coomassie blue staining: in the presence of compound
Source text: FIG. 2 that azetidine acrylamides stereo- and site-selectively engage recombinant DCAF1_C1113. (A) Domain map of DCAF1 with the region used for recombinant protein studies marked in a bracket (a.a.'s 1046-1396) and C1113 highlighted in red. (B) Crystal structure of a DCAF1-Vpx complex (pdb: 5AJA). DCAF1 (a.a.'s 1046-1396) is shown in cyan, Vpx is shown in yellow, and C1113, which is located at the DCAF1-Vpx interface is shown in red. (C) Structures of alkyne-modified azetidine acrylamides MY-11A (5) and MY-11B (6). (D) Gel-ABPP showing the concentration-dependent reactivity of MY-11A and MY-11B (1 h) reactivity with recombinant, purified DCAF1-WT or the DCAF1-C1113A mutant (0.06 μg/μL of DCAF1 protein per sample) doped into HEK293T cell proteome (1 μg/μL). MY-11A/B labeling of proteins was visualized by CuAAC conjugation to an azide-rhodamine tag followed by SDS-PAGE and in-gel fluorescence scanning. Results are from a single experiment representative of two independent experiments. (E) Gel-ABPP showing the concentration-dependent effects of MY-1A and MY-1B on MY-11B reactivity with DCAF1-WT. Samples were treated with MY-1A/B for 2 h, followed by MY-11B (25 μM, 1 h) and analyzed as described in (D). Left, quantification of data presented as mean values±SEM from two independent experiments. Right, representative gel-ABPP results. (D, E) Lower images are Coomassie blue-stained gels corresponding to ABPP gels shown in upper images.
(A) Structures of candidate electrophilic PROTACs YT41R (7), YT41S (8), YT47R (9), and YT47S (10). (B) Gel-ABPP showing the concentration-dependent effects of YT41R and YT47R on MY-11B reactivity with DCAF1-WT protein (0.06 μg/μL of DCAF1 protein per sample) doped into HEK293T cell proteome (1 μg/μL). Also shown are the effects of YT41S and YT47S tested at a single concentration (100 μM). Samples were treated with heterobifunctional compounds for 2 h, followed by MY-11B (25 μM, 1 h) and analyzed as described in FIG. 2D. Left, representative gel-ABPP results. Lower image is Coomassie blue-stained gel corresponding to ABPP gel shown in upper image. Right, quantification of data presented as mean values±SEM from two independent experiments.
DCAF1 is a multi-domain substrate receptor for CRL4 ligases (FIG. 2A) that has diverse physiological and disease functions, including being co-opted by the HIV-2 virus to promote degradation of the antiviral host protein SAMHD1^27-28. […] We verified the stereo- and site-selective engagement of DCAF1_C1113 by azetidine acrylamides using alkynylated analogues of MY-1A and MY-1B (MY-11A (5) and MY-11B (6), respectively; FIG. 2C). For these experiments, we doped into HEK293T cell lysates a recombinantly expressed and purified form of DCAF1 containing the WD40 domain (amino acids (a.a.'s) 1046-1396), in complex with the CRL4 adaptor protein DDB1^31, and exposed these samples to varying concentrations of MY-11A or MY-11B. After 1 h, we assessed MY-11A and MY-11B engagement of DCAF1 by copper-catalyzed azide-alkyne cycloaddition (CuAAC)^32 with an azide-rhodamine reporter tag followed by SDS-PAGE and in-gel fluorescence scanning^33. […] We used gel-ABPP to quantify an in vitro target engagement value (TE50) of approximately 25 μM (95% C.I.=13-38 μM) for MY-1B labeling of DCAF1 (FIG. 2E, left).

T1 sequence (Q9Y4B6 1046-1396): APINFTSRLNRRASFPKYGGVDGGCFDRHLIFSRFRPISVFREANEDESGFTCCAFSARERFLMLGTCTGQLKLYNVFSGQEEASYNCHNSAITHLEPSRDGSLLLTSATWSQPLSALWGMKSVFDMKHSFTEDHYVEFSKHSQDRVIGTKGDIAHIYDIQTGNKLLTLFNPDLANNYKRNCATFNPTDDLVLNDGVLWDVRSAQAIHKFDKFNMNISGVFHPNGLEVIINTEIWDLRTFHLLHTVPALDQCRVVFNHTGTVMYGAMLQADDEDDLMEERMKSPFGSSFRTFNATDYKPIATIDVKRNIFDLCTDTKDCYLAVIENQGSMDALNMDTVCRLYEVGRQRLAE
T1 sequence (Q16531 whole entry partner, the tested form may be a part): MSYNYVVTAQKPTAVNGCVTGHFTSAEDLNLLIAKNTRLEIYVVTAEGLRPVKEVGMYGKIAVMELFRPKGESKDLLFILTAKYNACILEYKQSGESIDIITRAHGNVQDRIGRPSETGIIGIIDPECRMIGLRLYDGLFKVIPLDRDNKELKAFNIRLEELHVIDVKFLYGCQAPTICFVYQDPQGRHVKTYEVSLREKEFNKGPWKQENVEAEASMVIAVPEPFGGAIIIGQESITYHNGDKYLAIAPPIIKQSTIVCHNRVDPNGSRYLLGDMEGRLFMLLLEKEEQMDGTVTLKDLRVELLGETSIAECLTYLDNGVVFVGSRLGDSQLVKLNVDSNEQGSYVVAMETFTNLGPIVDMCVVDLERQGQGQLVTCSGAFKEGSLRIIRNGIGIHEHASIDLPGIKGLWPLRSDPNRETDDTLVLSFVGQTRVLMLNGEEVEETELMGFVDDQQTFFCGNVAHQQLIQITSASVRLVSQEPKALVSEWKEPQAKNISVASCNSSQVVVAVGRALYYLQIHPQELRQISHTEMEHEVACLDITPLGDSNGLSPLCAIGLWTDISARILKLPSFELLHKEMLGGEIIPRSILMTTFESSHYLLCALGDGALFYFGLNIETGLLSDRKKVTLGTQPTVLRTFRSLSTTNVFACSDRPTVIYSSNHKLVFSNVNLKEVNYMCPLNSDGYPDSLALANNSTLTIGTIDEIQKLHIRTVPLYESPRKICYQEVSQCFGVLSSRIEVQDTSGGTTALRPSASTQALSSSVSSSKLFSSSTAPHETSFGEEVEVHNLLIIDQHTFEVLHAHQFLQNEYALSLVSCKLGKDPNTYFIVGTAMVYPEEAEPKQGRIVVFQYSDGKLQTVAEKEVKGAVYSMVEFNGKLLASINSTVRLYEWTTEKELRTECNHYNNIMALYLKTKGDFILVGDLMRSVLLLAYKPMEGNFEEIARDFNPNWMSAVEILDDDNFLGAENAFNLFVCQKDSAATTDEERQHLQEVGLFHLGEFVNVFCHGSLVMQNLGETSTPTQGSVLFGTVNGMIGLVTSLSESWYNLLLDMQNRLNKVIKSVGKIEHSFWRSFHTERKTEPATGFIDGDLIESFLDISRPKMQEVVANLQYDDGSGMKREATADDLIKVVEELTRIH

SMILES | inhibition of MY-11B probe reactivity with recombinant DCAF1 | plateau of blockade of MY-11B labeling | gel-shift of recombinant DCAF1 by Coomassie blue staining
C=CC(=O)N1C[C@H](c2ccc(C(=O)NCCOCCOCCOCCNC(=O)COc3cccc([C@@H](CCc4ccc(OC)c(OC)c4)OC(=O)[C@@H]4CCCCN4C(=O)C(=O)C(C)(C)CC)c3)cc2)[C@@H]1C(=O)Nc1cccc2cccnc12 [YT47R] | concentration-dependent inhibition | ~75% | apparent gel-shift
C=CC(=O)C1C[C@H](c2ccc(C(=O)NCCOCCOCCNC(=O)COc3cccc([C@@H](CCc4ccc(OC)c(OC)c4)OC(=O)[C@@H]4CCCCN4C(=O)C(=O)C(C)(C)CC)c3)cc2)[C@@H]1C(=O)Nc1cccc2cccnc12 (stereo partly drawn) [YT41R] | concentration-dependent inhibition | ~75% | apparent gel-shift
